Measurements taken from PubChem BioAssay AID652220 (The Scripps Research Institute Molecular Screening Center, 2013).

Molecular target: Serine/threonine-protein phosphatase PP1-alpha catalytic subunit (Homo sapiens) (UniProt P62136)
Test: dose-dependent PP1alpha phosphatase inhibition – biochemical, fluorescence, OMFP substrate, set 3, dose response (AID 652220)
Conditions: purified PP1alpha, OMFP dephosphorylation

Sequence of Serine/threonine-protein phosphatase PP1-alpha catalytic subunit (Homo sapiens) (P62136 whole entry, looked up): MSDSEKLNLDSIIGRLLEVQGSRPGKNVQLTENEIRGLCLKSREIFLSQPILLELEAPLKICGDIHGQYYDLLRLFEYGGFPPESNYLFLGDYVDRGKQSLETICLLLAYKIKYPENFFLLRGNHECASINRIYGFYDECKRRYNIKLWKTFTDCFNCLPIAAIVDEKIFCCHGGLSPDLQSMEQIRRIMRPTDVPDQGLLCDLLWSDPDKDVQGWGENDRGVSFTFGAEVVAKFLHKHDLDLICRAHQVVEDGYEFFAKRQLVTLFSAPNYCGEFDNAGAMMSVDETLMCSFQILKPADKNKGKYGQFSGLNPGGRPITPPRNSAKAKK

IC50 [µM]	Compound
4.81	CN1CCN([C@@H](c2ncccn2)c2ccc3cccnc3c2O)CC1
5.86	CN1CCN([C@H](c2ncccn2)c2ccc3cccnc3c2O)CC1
